Where two headings read alike, the source gives them in different places.
What was measured:
Format in all cases: cell-based, chick
[1] = system: dorsal root ganglia (DRG) neurons
Protocol: The eggs were incubated for 10 days before dissection in a dark egg incubator with motion at a dry temperature of 86-100° F. and wet temperature of 84-86° F. From the ventral side, the spines of the embryos were exposed, the kidneys were removed one at a time under higher dissecting power carefully so as not to remove the nerve chains situated just below the kidney along the ventral side of the spinal cord. The DRGs were each dissected from the area between the bottom of the ribs and the posterior end of the embryo, placed in a tissue culture dish containing F12 media. DRGs from 12 embryos were transferred with a fire-polished Louis Pasteur pipette to a sterile 15 ml tube. After the DRGs settled to the bottom of the tube, a pipette was used to carefully remove the F12 media, avoiding removal of any DRGs. Ten mLs of 5% trypsin were added to the tube with DRGs, mixed, and incubated for 30 minutes in a 37° C. water bath. Every 10 minutes of incubation the tube was removed from the water bath and tapped to mix the DRGs and allow the trypsin to digest connective tissue to separate the neurons. After incubation, trypsin was removed using a pipette. The cells were rinsed with 2 ml of Neurobasal media 2-3 times by adding media, allowing the DRGs to settle to the bottom of the tube before removing the media, and adding another 2 ml of media. After the final rinse, the volume was brought up to 1 ml and the dissociated neurons were triturated with a medium-sized, then a small-sized, fire-polished Louis Pasteur pipette until the cell solution appeared cloudy and no individual DRGs were present in the media. A small amount of the solution was transferred to a hemocytometer and the single cells were counted. The cell solution was diluted so that 10-15×10^4 cells were added to an Alconox® treated, 0.1 mg/ml collagen coated, 25 mm diameter round glass coverslip in a 35 mm dish with 2 ml of Neurobasal media. The DRGs were incubated in 5% CO2 at 37° C. for 2-3 days before experimentation. Approximately 1 mL of media was replaced with new media every other day until experiments began.
Experiments began 2-3 days after neurons were plated. A dish of neurons was washed with 1×HBSS then 1×HBSS+1 mg/ml bovine serum albumin (BSA) before the cells were bathed in 4 μM Fura-2AM in 1×HBSS+BSA for incubation for 45 min at 37° C. in 5% CO2. The cells were washed 4× with 1×HBSS and incubated for another 20-60 min in 1×HBSS. A coverslip containing the neurons was removed after the final wash and placed in an apparatus for calcium imaging.
All toxins including nicotine, boric acid, ionomycin, glutamate, and glycine were prepared in 1×HBSS according to their final concentrations (Table 3).
The coverslip containing the neurons was placed in a perfusion apparatus onto an Olympus IX70 microscope equipped with a 20× fluorescence objective, a Mercury lamp and filter sets that optimized the Fura-2 excitation ([…]) and emission wavelengths (510 nm). The cells were bathed continuously by perfusion of solutions at ˜4.7 mL/min. The cells were bathed with 1×HBSS during software setup and for resting Ca^2+ measurements before exposure to stimulating or toxic solutions. InCyt Im2™ software was used to measure the emission intensities and convert to Ca^2+ concentrations. Only designated areas of each neuron soma were chosen for measurements. Calibration curves were generated for conversion of light intensity emitted per excitation wavelength using standard Ca^2+ solutions in the free acid form of Fura-2 to convert emitted light intensity to Ca^2+ concentration. Each experiment began with 3 min wash with HBSS to establish resting intracellular Ca^2+ measurements. Depending on the toxin used, the neurons were then exposed to a flow of toxic/stimulating solution for 5-10 min. Each experiment ended with a 1 min. wash of HBSS to determine reversal or change of the stimulating/toxic solution. […]

DRG neurons [2] = system: DRG neurons
Protocol: For microscopy experiments, holes were drilled in the bottom of 35 mm tissue culture dishes with a 7/32″ drill bit and drill press. Etching was performed on 12 mm round glass coverslips that were submerged in 300 ml of boiling 18 MΩ H2O containing 7.5 g Alconox detergent for 30 minutes. The coverslips were then rinsed with 18MΩ H2O and dried in a 150 mm Petri dish in a laminar flow hood. A section of Tygon tubing (0.5 inch long, 0.5 inch inner diameter, and 0.75 inch outer diameter) was used to apply Dow Corning 732 multi-purpose sealant to the bottom of the tissue culture dishes just around the hole that was drilled previously. Forceps were used to press one round glass coverslip to the bottom of each tissue culture dish until a continuous seal was formed around the hole. The tissue culture dishes were laid in a fume hood to dry. Exposure to ultraviolet light for at least an hour or treatment with ethanol for approximately 30 seconds was used to sterilize the dishes. Type VII collagen, to promote cell adhesion to the glass coverslip, was added to each dish for coating and allowed to air dry in the laminar flow hood to maintain sterility. Once the dishes were dry, the lids were placed back on the dishes and the edges of the Petri dishes were then wrapped in Parafilm and stored in a 4° C. refrigerator before use.
Focusing on the FM® dye, the dye was thawed at room temperature and vortexed. A 30 μM FM® dye solution was made with 1×HBSS. The solution was heated to 37° C. and vortexed just before each cell staining experiment. The cells were exposed to the FM® dye solution for 5-10 min before imaging.
The media was removed from the 35 mm tissue culture dish using a micropipette. The surface was then rinsed once with 1 ml HBSS. […]
DRG neurons stained with FM® 4-64 were imaged before exposure to 100 μM ionomycin. […] Over the 10 min of imaging, the samples were moving out of focus and the focus was readjusted intermittently for more consistent images. […]

DRG neurons [3] = assay: Fluorescence spectroscopy of FM 4-64 labeled DRG neurons
Protocol: For spectroscopy experiments, DRG neurons were grown on 11×22 mm plastic coverslips that were treated with Alconox and coated with Type VII rat tail collagen, using the same methods that were mentioned previously. Cells were plated with ˜15×10^4 cells in each 35 mm tissue culture dish containing one plastic coverslip. The cells were incubated in 5% CO2 at 37° C. for 2 days before experiments began.
Before scanning the cell samples, the coverslip was mounted into a coverglass holder and was held inside a cuvette at a 45° angle from the light source and the photo detector. The coverglass holder was placed in a cuvette containing 1×HBSS to rinse the media from the cells prior to the experiments. For the spectroscopy experiments, the coverglass holder was placed in the cuvette that was filled with either 1×HBSS or stimulating solutions. The orientation of the coverglass in the cuvette was situated so that the cell surface was facing the light source and photodetector, both at 45° angles. For experiments using FM® 4-64, scan were conducted using a HORIBA Jobin Yvon FluoroLog®-3 spectrofluorometer with an excitation wavelength of 558 nm and an emission range was detected from 566 to 750 nm. The slit width for excitation and emission was 3 nm and data was collected every 0.2 sec, once for each wavelength. Fluorescence intensity was detected in counts per second (cps). The data was transferred into MS Excel and analyzed using Matlab.
In Matlab, the maximum intensity of each scan was found for the emission wavelength range of interest and the ratio of the maximum emission intensities was taken between non-labeled, non-stimulated cells and FM®-labeled cells before and after stimulation. This ratio was used to determine the difference in fluorescence, and therefore the amount of stained membranes present in the sample before and after stimulation with ionomycin.
To determine whether a change in fluorescence of FM®-labeled neurons could be measured, the cells were stained and stimulated using the same methods mentioned above. Four emission scans were performed: a control scan of the non-labeled neurons in HBSS, a scan of the FM®-labeled neurons in HBSS, a scan of the FM® labeled neurons in ionomycin 5 min after initial stimulation, and a scan of the post stimulated, FM®-labeled neurons in 1×HBSS wash. The cells were rinsed with warm 1×HBSS before each scan, and the cells were stimulated for a total of 10 min before rinsed with 1×HBSS for the fourth scan. The ratio of fluorescence intensities of non-labeled neurons to FM®-labeled neurons, FM®-labeled ionomycin-stimulated neurons, and FM®-labeled ionomycin-stimulated rinsed neurons in Table 5.

DRG neurons [4] = system: DRG neurons; remark: listed apart in the source
[5] = FM-labeled neurons after 10 min ionomycin stimulation, rinsed in 1×HBSS
[6] = FM-labeled neurons, 5 min in ionomycin
[7] = 10 min, 50 mM boric acid, 500 μM glutamate or 100 μM nicotine

## C[C@H](CCC(=O)O)C[C@H](C)C[C@H](C)C(=O)/C=C(\O)[C@H](C)C[C@H](C)C/C=C/[C@@H](C)[C@@H](O)[C@@H](C)[C@@H](O)C[C@@H]1CC[C@@](C)([C@H]2CC[C@@](C)([C@@H](C)O)O2)O1 [ionomycin]
[1]; ~100 μM ionomycin, highest time points averaged, n=228
  mean intracellular Ca2+ concentration during stimulation: 988 nM
[1]; ~100 μM ionomycin, positive control
  change of intracellular Ca2+ compared to resting: large and irreversible
DRG neurons [2]; 100 μM ionomycin, up to 10 min
  cell morphology in phase images during stimulation: shrinkage of the cell soma
DRG neurons [2]; 100 μM ionomycin, within the first 25 sec of stimulation
  migration of FM 4-64 dye in stained neurons: migrated from the membranes of the axons into the soma
DRG neurons [3]; [5]
  Fluorescence Intensity at 667 nm: 2238 cps
  Fluorescence Intensity at Peak Emission Wavelength: 2362 cps
  Peak Emission Wavelength: 676 nm
DRG neurons [3]; [6]
  Fluorescence Intensity at 667 nm: 3303 cps
  Fluorescence Intensity at Peak Emission Wavelength: 3719 cps
  Peak Emission Wavelength: 684 nm
DRG neurons [3]; FM-labeled neurons, 5 min in ionomycin vs non-labeled neurons
  Ratio of Fluorescence Intensities at 667 nm: 2.05
DRG neurons [3]; after 10 min ionomycin stimulation, rinsed in 1×HBSS vs non-labeled neurons
  Ratio of Fluorescence Intensities at 667 nm: 1.39

## [Cl-].[K+] [KCl, potassium chloride]
[1]; 50 mM KCl, n=104
  mean intracellular Ca2+ concentration during stimulation: 511 nM
DRG neurons [4]; 50 mM KCl, 10 min after addition
  migration of FM 4-64 dye in stained neurons: some migration of FM® dye throughout the DRG neurons
DRG neurons [4]; 50 mM KCl, 10 min of stimulation
  cell morphology in phase images during stimulation: some swelling in small parts of axons

## N[C@@H](CCC(=O)O)C(=O)O [glutamate]
[1]; 100 μM glutamate
  percent of cells that responded with an increase of intracellular Ca2+: 21%
  percent of cells without obvious increase of intracellular Ca2+ (non-responding): 79%
[1]; 100 μM glutamate, n=27, resting 68.7 nM
  average intracellular Ca2+ concentration, responding cells: 301 nM
[1]; 100 μM glutamate, n=100, resting 67 nM
  average intracellular Ca2+ concentration, non-responding cells: 71 nM
[1]; 500 μM glutamate
  percent of cells that responded with an increase of intracellular Ca2+: 34%
  percent of cells without obvious increase of intracellular Ca2+ (non-responding): 66%
[1]; 500 μM glutamate, n=75, resting 82
  average intracellular Ca2+ concentration, responding cells: 352 nM
[1]; 500 μM glutamate, n=146, resting 84 nM
  average intracellular Ca2+ concentration, non-responding cells: 88 nM
[1]; 1 mM glutamate
  percent of cells that responded with an increase of intracellular Ca2+: 15%
  percent of cells without obvious increase of intracellular Ca2+ (non-responding): 85%
[1]; 1 mM glutamate, n=38, resting 79 nM
  average intracellular Ca2+ concentration, non-responding cells: 87 nM
DRG neurons [4]; [7]
  axon morphology after stimulation: swollen axons
  migration of FM 4-64 dye in stained neurons: no migration of FM® 4-64 throughout the cells

## OB(O)O [boric acid]
[1]
  change of intracellular Ca2+ compared to resting: slight, but significant, decrease
  mean intracellular Ca2+ concentration during stimulation: 58 nM
DRG neurons [4]
  axon morphology after stimulation: swollen axons
  differences in membrane structure before vs after treatment: very little differences to no differences
  migration of FM 4-64 dye in stained neurons: no migration of FM® 4-64 throughout the cells

## CCN(CC)c1ccc(/C=C/C=C/C=C/c2cc[n+](CCC[N+](CC)(CC)CC)cc2)cc1.[Br-].[Br-] [FM® 4-64]
DRG neurons [2]; 30 μM FM 4-64 in 1×HBSS
  staining of DRG neuron membranes: complete staining of the cell membranes around the soma and axons

## CN1CCCC1c1cccnc1 (stereo not shown) [nicotine]
[1]
  change of intracellular Ca2+ compared to resting: only a few cells experiencing an increase in intracellular Ca^2+
DRG neurons [4]
  axon morphology after stimulation: swollen axons
  migration of FM 4-64 dye in stained neurons: no migration of FM® 4-64 throughout the cells

Reference: patent publication US20150004636A1, “NEURONAL BIOSENSOR FOR DETECTION OF TOXINS” (priority 2011, published 2015)
